Source: patent publication US11780830B2, “Triazolone derivatives or salts thereof and pharmaceutical compositions comprising the same” (YUHAN CORPORATION, priority 2018, dated 2023)
Where a name gives a salt, the structure may show the parent alone.

Key:
Type in all cases: biochemical
[1] = molecular target: T1, recombinant human MAO-B (monoamine oxidase-B) (Homo sapiens, UniProt P27338); assay: Activity on recombinant human MAO-B, method similar to the VAP-1 assay; conditions: substrate 1 mM benzylamine; read-out: Inhibitory Activity (IC50, nM) MAO-B
T1 construct: purchased Sigma-Aldrich
T1 sequence (P27338 1-520): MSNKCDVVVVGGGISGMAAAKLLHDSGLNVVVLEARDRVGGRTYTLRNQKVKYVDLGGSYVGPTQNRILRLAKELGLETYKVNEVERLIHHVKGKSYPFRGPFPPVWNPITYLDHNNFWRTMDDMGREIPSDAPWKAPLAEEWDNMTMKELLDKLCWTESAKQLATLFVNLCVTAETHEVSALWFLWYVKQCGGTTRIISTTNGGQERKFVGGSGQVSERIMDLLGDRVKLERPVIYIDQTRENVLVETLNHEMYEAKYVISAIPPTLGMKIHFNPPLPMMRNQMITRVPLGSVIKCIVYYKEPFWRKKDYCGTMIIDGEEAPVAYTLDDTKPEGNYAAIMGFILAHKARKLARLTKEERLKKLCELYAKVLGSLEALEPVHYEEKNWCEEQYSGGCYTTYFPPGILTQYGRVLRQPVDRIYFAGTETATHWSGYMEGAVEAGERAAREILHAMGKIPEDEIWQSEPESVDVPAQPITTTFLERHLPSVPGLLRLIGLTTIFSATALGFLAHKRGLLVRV
Method in brief: (§1)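 Amplex Red/HRP coupled read-out of H2O2 with 0.5 mM tyramine for MAO-A or 1 mM benzylamine for MAO-B, following a 30-min compound–enzyme preincubation at 37° C. IC50 from percent inhibition of signal rate relative to uninhibited control.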

[2] = molecular target: T2, recombinant human VAP-1 (Homo sapiens, UniProt Q16853); assay: Activity on recombinant human VAP-1, HRP-coupled Amplex Red hydrogen peroxide assay; conditions: substrate 1 mM benzylamine; compound incubated with enzyme at 37° C. for 30 minutes; pH 7.4; read-out: Inhibitory Activity (IC50, nM) human VAP-1
T2 construct: purchased R&D systems
T2 sequence (Q16853 1-763): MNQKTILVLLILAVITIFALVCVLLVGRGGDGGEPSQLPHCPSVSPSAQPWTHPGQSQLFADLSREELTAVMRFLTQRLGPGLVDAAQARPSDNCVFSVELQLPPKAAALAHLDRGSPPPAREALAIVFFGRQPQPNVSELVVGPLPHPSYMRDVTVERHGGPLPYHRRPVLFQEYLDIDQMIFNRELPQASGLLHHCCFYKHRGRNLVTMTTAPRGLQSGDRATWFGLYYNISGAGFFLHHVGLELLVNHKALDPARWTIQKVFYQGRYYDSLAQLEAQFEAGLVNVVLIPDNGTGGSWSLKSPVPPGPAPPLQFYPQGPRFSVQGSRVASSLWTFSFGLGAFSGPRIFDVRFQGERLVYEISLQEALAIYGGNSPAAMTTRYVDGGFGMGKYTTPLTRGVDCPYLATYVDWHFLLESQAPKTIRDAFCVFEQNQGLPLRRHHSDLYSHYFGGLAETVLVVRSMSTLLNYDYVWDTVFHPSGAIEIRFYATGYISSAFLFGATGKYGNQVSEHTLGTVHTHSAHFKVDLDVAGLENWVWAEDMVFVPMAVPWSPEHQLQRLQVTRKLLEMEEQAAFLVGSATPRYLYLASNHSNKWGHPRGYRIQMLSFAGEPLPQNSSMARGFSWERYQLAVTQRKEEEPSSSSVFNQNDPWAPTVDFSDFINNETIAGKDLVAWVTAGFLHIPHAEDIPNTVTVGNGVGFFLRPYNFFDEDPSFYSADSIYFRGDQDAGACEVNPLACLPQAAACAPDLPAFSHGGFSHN
Method in brief: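 Dose-response IC50 determined from reduction in resorufin signal rate (544/590 nm, 1-2 h), with 30 min compound preincubation at 37 °C and 1 mM benzylamine as substrate.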

[3] = molecular target: T3, recombinant human MAO-A (monoamine oxidase-A) (Homo sapiens, UniProt P21397); assay: Activity on recombinant human MAO-A, method similar to the VAP-1 assay; conditions: substrate 0.5 mM tyramine; read-out: Inhibitory Activity (IC50, nM) MAO-A
T3 construct: purchased Sigma-Aldrich
T3 sequence (P21397 1-527): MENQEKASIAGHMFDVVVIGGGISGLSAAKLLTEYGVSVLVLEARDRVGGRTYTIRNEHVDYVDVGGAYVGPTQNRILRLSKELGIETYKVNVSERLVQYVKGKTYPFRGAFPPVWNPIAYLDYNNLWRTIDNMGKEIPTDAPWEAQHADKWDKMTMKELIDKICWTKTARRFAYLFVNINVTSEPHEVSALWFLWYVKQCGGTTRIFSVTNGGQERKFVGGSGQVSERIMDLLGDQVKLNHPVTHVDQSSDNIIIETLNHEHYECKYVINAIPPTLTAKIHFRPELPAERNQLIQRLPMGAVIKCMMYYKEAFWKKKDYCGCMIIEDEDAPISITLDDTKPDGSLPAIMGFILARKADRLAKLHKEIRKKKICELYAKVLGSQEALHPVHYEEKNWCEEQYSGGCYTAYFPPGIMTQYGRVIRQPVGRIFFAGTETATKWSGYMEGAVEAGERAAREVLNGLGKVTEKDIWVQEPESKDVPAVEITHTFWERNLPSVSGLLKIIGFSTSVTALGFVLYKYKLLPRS
Method in brief: as §1

[4] = molecular target: T4, recombinant human DAO (diamine oxidase) (Homo sapiens, UniProt P19801); assay: Activity on recombinant human DAO, method similar to the VAP-1 assay; conditions: substrate 1 mM putrescine; read-out: Inhibitory Activity (IC50, nM) DAO
T4 construct: purchased R&D systems
T4 sequence (P19801 20-751): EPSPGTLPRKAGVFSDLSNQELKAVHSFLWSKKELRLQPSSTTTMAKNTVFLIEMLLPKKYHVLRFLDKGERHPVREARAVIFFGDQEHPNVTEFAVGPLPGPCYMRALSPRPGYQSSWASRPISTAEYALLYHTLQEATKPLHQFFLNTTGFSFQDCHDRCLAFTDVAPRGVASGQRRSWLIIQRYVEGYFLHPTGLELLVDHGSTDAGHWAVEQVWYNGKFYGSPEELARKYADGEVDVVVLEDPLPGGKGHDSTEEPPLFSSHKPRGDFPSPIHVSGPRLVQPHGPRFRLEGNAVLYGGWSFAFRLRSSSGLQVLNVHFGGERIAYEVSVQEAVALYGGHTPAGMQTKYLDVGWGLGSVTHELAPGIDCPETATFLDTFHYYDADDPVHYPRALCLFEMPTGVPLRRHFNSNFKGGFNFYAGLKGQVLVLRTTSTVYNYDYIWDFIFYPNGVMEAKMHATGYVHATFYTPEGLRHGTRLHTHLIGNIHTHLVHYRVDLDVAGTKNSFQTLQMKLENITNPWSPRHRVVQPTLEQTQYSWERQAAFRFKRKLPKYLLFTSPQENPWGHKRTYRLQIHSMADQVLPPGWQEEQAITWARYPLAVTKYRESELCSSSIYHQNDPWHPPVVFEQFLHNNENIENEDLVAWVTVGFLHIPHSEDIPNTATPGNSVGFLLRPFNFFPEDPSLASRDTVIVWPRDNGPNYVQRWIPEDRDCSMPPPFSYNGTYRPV
Method in brief: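 Inhibition of recombinant human diamine oxidase (DAO, R&D systems) was assessed by the same approach as the VAP-1 assay, using 1 mM putrescine as substrate. Hydrogen peroxide formed was detected through an HRP-coupled Amplex Red reaction yielding fluorescent resorufin, read at 544 nm excitation and 590 nm emission. IC50 values came from four-parameter logistic fitting in GraphPad Prism.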

IC50 [1]	IC50 [2]	IC50 [3]	IC50 [4]	SMILES
4800 nM	0.2 nM	> 100000 nM	630 nM	Cc1cc(-c2ccc(Cn3cnn(C/C(=C/F)CN)c3=O)s2)cc2ccc(=O)[nH]c12 [Example 78, 6-[5-[[1-[(E)-2-(aminomethyl)-3-fluoro-allyl]-5-oxo-1,2,4-triazol-4-yl]methyl]-2-thienyl]-8-methyl-1H-quinolin-2-one]
1900 nM	0.1 nM	> 100000 nM	210 nM	CN1C(=O)CCc2cc(-c3ccc(Cn4cnn(C/C(=C/F)CN)c4=O)s3)ccc21 [Example 79, 6-[5-(1-[(2E)-2-(aminomethyl)-3-fluoroprop-2-en-1-yl]-5-oxo-1,5-dihydro-4H-1,2,4-triazol-4-ylmethyl)thiophen-2-yl]-1-methyl-3,4-dihydroquinolin-2(1H)-one hydrochloride]
6300 nM	0.2 nM	> 100000 nM	380 nM	NC/C(=C\F)Cn1ncn(Cc2ccc(-c3cc(F)c4c(c3)CCC(=O)N4)s2)c1=O [Example 80, 6-[5-[[1-[(E)-2-(aminomethyl)-3-fluoro-allyl]-5-oxo-1,2,4-triazol-4-yl]methyl]-2-thienyl]-8-fluoro-3,4-dihydro-1H-quinolin-2-one]
430 nM	0.18 nM	> 100000 nM	68 nM	NC/C(=C\F)Cn1ncn(Cc2ccc(-c3cc4c(c(C(F)(F)F)c3)NC(=O)CC4)s2)c1=O [Example 81, 6-[5-[[1-[(E)-2-(aminomethyl)-3-fluoro-allyl]-5-oxo-1,2,4-triazol-4-yl]methyl]-2-thienyl]-8-(trifluoromethyl)-3,4-dihydro-1H-quinolin-2-one]

More lines, now with the values behind:

SMILES	IC50 [1]	IC50 [2]	IC50 [3]	IC50 [4]
NC/C(=C\F)Cn1ncn(Cc2ccc(-c3ccc4c(c3)CC(=O)N4)s2)c1=O [Example 69, 5-[5-(1-[(2E)-2-(aminomethyl)-3-fluoroprop-2-en-1-yl]-5-oxo-1,5-dihydro-4H-1,2,4-triazol-4-ylmethyl)thiophen-2-yl]-1,3-dihydro-2H-indol-2-one hydrochloride]	1800 nM	0.1 nM	70000 nM	1100 nM
NC/C(=C\F)Cn1ncn(Cc2ccc(-c3cc(F)c4c(c3)CNC4=O)s2)c1=O [Example 70, hydrochloride]	2800 nM	0.1 nM	> 100000 nM	289 nM
NC/C(=C\F)Cn1ncn(Cc2ccc(-c3cc(F)c4c(c3)CC(=O)N4)s2)c1=O [Example 71, 5-[5-[[1-[(E)-2-(aminomethyl)-3-fluoro-allyl]-5-oxo-1,2,4-triazol-4-yl]methyl]-2-thienyl]-7-fluoro-indolin-2-one hydrochloride]	> 10000 nM	0.2 nM	> 100000 nM	530 nM
NC/C(=C\F)Cn1ncn(Cc2ccc(-c3ccc4oc(=O)[nH]c4c3)s2)c1=O [Example 72, 5-[5-(1-[(2E)-2-(aminomethyl)-3-fluoroprop-2-en-1-yl]-5-oxo-1,5-dihydro-4H-1,2,4-triazol-4-ylmethyl)thiophen-2-yl]-1,3-benzooxazol-2(3H)-one hydrochloride]	< 10 nM	0.4 nM	≥ 100000 nM	230 nM
CN1C(=O)Cc2cc(-c3ccc(Cn4cnn(C/C(=C/F)CN)c4=O)s3)cnc21 [Example 73, 5-[5-(1-[(2E)-2-(aminomethyl)-3-fluoroprop-2-en-1-yl]-5-oxo-1,5-dihydro-4H-1,2,4-triazol-4-ylmethyl)thiophen-2-yl]-1-methyl-1,3-dihydro-2H-pyrrolo[2,3-b]pyridin-2-one hydrochloride]	6100 nM	0.2 nM	> 100000 nM	93 nM
NC/C(=C\F)Cn1ncn(Cc2ccc(-c3ccc4c(c3)C(=O)NCC4)s2)c1=O [Example 74, 7-[5-(1-[(2E)-2-(aminomethyl)-3-fluoroprop-2-en-1-yl]-5-oxo-1,5-dihydro-4H-1,2,4-triazol-4-ylmethyl)thiophen-2-yl]-3,4-dihydroisoquinolin-1(2H)-one hydrochloride]	> 10000 nM	0.3 nM	> 100000 nM	620 nM
NC/C(=C\F)Cn1ncn(Cc2ccc(-c3ccc4c(c3)CCC(=O)N4)s2)c1=O [Example 75, 6-[5-(1-[(2E)-2-(aminomethyl)-3-fluoroprop-2-en-1-yl]-5-oxo-1,5-dihydro-4H-1,2,4-triazol-4-ylmethyl)thiophen-2-yl]-3,4-dihydroquinolin-2(1H)-one hydrochloride]	2600 nM	0.3 nM	> 100000 nM	950 nM
Cc1cc(-c2ccc(Cn3cnn(C/C(=C/F)CN)c3=O)s2)cc2c1NC(=O)CC2 [Example 77, 6-[5-(1-[(2E)-2-(aminomethyl)-3-fluoroprop-2-en-1-yl]-5-oxo-1,5-dihydro-4H-1,2,4-triazol-4-ylmethyl)thiophen-2-yl]-8-methyl-3,4-dihydroquinolin-2(1H)-one hydrochloride]	1300 nM	0.2 nM	> 100000 nM	460 nM
